From ChEMBL document CHEMBL3046401, “Synthesis, X-ray structure and antiproliferative activity of 3-benzylthio-4-propargylselenoquinoline” (2010)
Converted amounts (≈) assume the structure as drawn.

Columns and labels:
Type in all cases: functional
Settings in all cases: read-out: ID50 (the source's name)
[1] = Antiproliferative activity against Homo sapiens (human) HCV29T cells by SRB assay
[2] = Antiproliferative activity against Homo sapiens (human) SW707 cells by SRB assay
A549 = test: Antiproliferative activity against Homo sapiens (human) A549 cells by SRB assay
T47D = test: Antiproliferative activity against Homo sapiens (human) T47D cells by SRB assay

Compound `C#CC[Se]c1c(SCc2ccccc2)cnc2ccccc12` [3-BENZYLTHIO-4-PROPARGYLSELENOQUINOLINE] has an IC50 [1] of over 100 µg/mL, an IC50 [2] of over 100 µg/mL and an IC50 (A549) of over 100 µg/mL. The IC50 (T47D) was over 100 µg/mL.
In the case of `C#CC[Se]c1c(SC)cnc2ccccc12` [3-METHYLTHIO-4-PROPARGYLSELENOQUINOLINE], the IC50 [1] is reported as 1.8 µg/mL (≈ 6.16 µM), the IC50 [2] is reported as 0.6 µg/mL (≈ 2.05 µM) and the IC50 (T47D) is reported as 2.5 µg/mL (≈ 8.55 µM).
Compound `C#CCSc1c(SC)cnc2ccccc12` [3-METHYLTHIO-4-PROPARGYLTHIOQUINOLINE] has an IC50 [1] of 5.7 µg/mL (≈ 23.2 µM), an IC50 [2] of 17.6 µg/mL (≈ 71.7 µM) and an IC50 (A549) of 6.8 µg/mL (≈ 27.7 µM). For the same compound, the IC50 (T47D) was 18.4 µg/mL (≈ 75 µM).
